Assay results taken from ChEMBL document CHEMBL3877294, “Discovery of Ruzasvir (MK-8408): A Potent, Pan-Genotype HCV NS5A Inhibitor with Optimized Activity against Common Resistance-Associated Polymorphisms” (J Med Chem, 2017).

Key:
Type in all cases: cell-based
Huh-7 [1] = assay: Inhibition of HCV genotype-4a NS5A infected in human HuH7 cells by luciferase reporter gene assay; settings: Hepatitis C virus subtype 4a
Huh-7 [2] = assay: Inhibition of HCV genotype-3a NS5A infected in human HuH7 cells by luciferase reporter gene assay; settings: Hepatitis C virus subtype 3a
[3] = system: Nonstructural protein 5A (Hepatitis C virus), Q5L478 [UNDEFINED MUTATION]; assay: Inhibition of HCV genotype-1a NS5A L31V mutant infected in human HuH7 cells by luciferase reporter gene assay; settings: Hepatitis C virus subtype 1a; Huh-7
[4] = system: T1, Nonstructural protein 5A (Hepatitis C virus), Q5L478 [Y93H]; assay: Inhibition of HCV genotype-1a NS5A Y93H mutant infected in human HuH7 cells by luciferase reporter gene assay; settings: Hepatitis C virus subtype 1a; Huh-7
T1 sequence (whole entry): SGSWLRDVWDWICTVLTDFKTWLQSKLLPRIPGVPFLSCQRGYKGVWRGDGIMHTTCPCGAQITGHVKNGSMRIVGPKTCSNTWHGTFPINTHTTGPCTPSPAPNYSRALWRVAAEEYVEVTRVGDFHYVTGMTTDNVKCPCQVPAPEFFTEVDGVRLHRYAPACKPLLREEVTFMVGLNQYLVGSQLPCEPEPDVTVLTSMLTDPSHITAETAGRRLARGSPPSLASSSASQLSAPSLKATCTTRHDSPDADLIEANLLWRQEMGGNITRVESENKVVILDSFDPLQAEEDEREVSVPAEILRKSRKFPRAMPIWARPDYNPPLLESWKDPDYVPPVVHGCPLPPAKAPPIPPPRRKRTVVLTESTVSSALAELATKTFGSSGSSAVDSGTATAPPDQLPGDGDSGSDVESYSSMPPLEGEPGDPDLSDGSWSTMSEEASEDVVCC

Huh-7 [5] = assay: Inhibition of HCV genotype-1a NS5A infected in human HuH7 cells by luciferase reporter gene assay; settings: Hepatitis C virus subtype 1a
Huh-7 [6] = assay: Inhibition of HCV genotype-2b NS5A harboring methionine at position 31 infected in human HuH7 cells by luciferase reporter gene assay; settings: Hepatitis C virus subtype 2b

Compound | EC90 (Huh-7 [1]) [nM] | EC90 (Huh-7 [2]) [nM] | EC90 [3] [nM] | EC90 [4] [nM] | EC90 (Huh-7 [5]) [nM] | EC90 (Huh-7 [6]) [nM]
COC(=O)N[C@H](C(=O)N1CCC[C@H]1c1ncc(-c2cc(F)c3c(c2)OC(c2cnc(C4(C)CC4)s2)n2c-3cc3cc(-c4cnc([C@@H]5C[C@H]6C[C@H]6N5C(=O)[C@@H](NC(=O)OC)C(C)C)[nH]4)ccc32)[nH]1)C(C)C (some centres not stated) | 0.005 | 0.009 | 0.007 | 0.02 | 0.005 | 0.18
COC(=O)N[C@H](C(=O)N1CCC[C@H]1c1ncc(-c2cc(F)c3c(c2)OC(c2ccc(C(F)F)s2)n2c-3cc3cc(-c4cnc([C@@H]5CCCN5C(=O)[C@@H](NC(=O)OC)C(C)C)[nH]4)ccc32)[nH]1)C(C)C (some centres not stated) | 0.005 | 0.007 | 0.016 | 0.14 | 0.002 | 0.26
COC(=O)N[C@H](C(=O)N1CCC[C@H]1c1ncc(-c2cc(F)c3c(c2)OC(c2cnc(C(C)C)s2)n2c-3cc3cc(-c4cnc([C@@H]5C[C@H]6C[C@H]6N5C(=O)[C@@H](NC(=O)OC)C(C)C)[nH]4)ccc32)[nH]1)C(C)C (some centres not stated) | 0.006 | 0.006 | 0.008 | 0.028 | 0.003 | 0.23
COC(=O)N[C@H](C(=O)N1CCC[C@H]1c1ncc(-c2ccc3c(c2)cc2n3C(c3cc4ccccc4s3)Oc3cc(-c4cnc([C@@H]5C[C@@H](F)CN5C(=O)[C@@H](NC(=O)OC)C(C)C)[nH]4)ccc3-2)[nH]1)C(C)C (some centres not stated) |  | 0.19 | 0.53 | 1.1 | 0.01 | 3.4
COC(=O)N[C@H](C(=O)N1CCC[C@H]1c1ncc(-c2cc(F)c3c(c2)OC(c2cnc(C4CC4)o2)n2c-3cc3cc(-c4cnc([C@@H]5CCCN5C(=O)[C@@H](NC(=O)OC)C(C)C)[nH]4)ccc32)[nH]1)C(C)C (some centres not stated) | 0.03 | 0.18 | 0.46 | 1.8 | 0.007 | 1.1
COC(=O)N[C@H](C(=O)N1CCC[C@H]1c1ncc(-c2cc(F)c3c(c2)OC(c2cnc(C(C)C)s2)n2c-3cc3cc(-c4cnc([C@@H]5CCCN5C(=O)[C@@H](NC(=O)OC)C(C)C)[nH]4)ccc32)[nH]1)C(C)C (some centres not stated) | 0.004 | 0.006 | 0.022 | 0.05 | 0.002 | 0.14
CCc1nnc(C2Oc3cc(-c4cnc([C@@H]5CCCN5C(=O)[C@@H](NC(=O)OC)C(C)C)[nH]4)cc(F)c3-c3cc4cc(-c5cnc([C@@H]6CCCN6C(=O)[C@@H](NC(=O)OC)C(C)C)[nH]5)ccc4n32)s1 (some centres not stated) |  | 0.18 |  | 7.4 | 0.016 | > 1.7
COC(=O)N[C@H](C(=O)N1CCC[C@H]1c1ncc(-c2cc(F)c3c(c2)OC(c2ccc(CC4CC4)s2)n2c-3cc3cc(-c4cnc([C@@H]5CCCN5C(=O)[C@@H](NC(=O)OC)C(C)C)[nH]4)ccc32)[nH]1)C(C)C (some centres not stated) | 0.003 | 0.004 | 0.011 | 0.18 | 0.003 | 
COC(=O)N[C@H](C(=O)N1CCC[C@H]1c1ncc(-c2cc(F)c3c(c2)OC(c2ccc(CC(F)(F)F)s2)n2c-3cc3cc(-c4cnc([C@@H]5CCCN5C(=O)[C@@H](NC(=O)OC)C(C)C)[nH]4)ccc32)[nH]1)C(C)C (some centres not stated) | 0.004 | 0.007 | 0.022 | 0.1 | 0.001 | 0.65
COC(=O)N[C@H](C(=O)N1CCC[C@H]1c1ncc(-c2cc(F)c3c(c2)OC(c2cnc(C4(C)CC4)s2)n2c-3cc3cc(-c4cnc([C@@H]5CCCN5C(=O)[C@@H](NC(=O)OC)C(C)C)[nH]4)ccc32)[nH]1)C(C)C (some centres not stated) | 0.027 | 0.046 | 0.065 | 0.38 | 0.017 | 0.68
COCc1ncc(C2Oc3cc(-c4cnc([C@@H]5CCCN5C(=O)[C@@H](NC(=O)OC)C(C)C)[nH]4)cc(F)c3-c3cc4cc(-c5cnc([C@@H]6CCCN6C(=O)[C@@H](NC(=O)OC)C(C)C)[nH]5)ccc4n32)s1 (some centres not stated) | 0.003 | 0.007 | 0.017 | 0.04 | 0.002 | 0.12
COC(=O)N[C@H](C(=O)N1CCC[C@H]1c1ncc(-c2cc(F)c3c(c2)OC(c2cc(F)c(C4CC4)s2)n2c-3cc3cc(-c4cnc([C@@H]5CCCN5C(=O)[C@@H](NC(=O)OC)C(C)C)[nH]4)ccc32)[nH]1)C(C)C (some centres not stated) | 0.014 | 0.012 | 0.029 | 0.17 | 0.005 | 0.68
COC(=O)N[C@H](C(=O)N1CCC[C@H]1c1ncc(-c2cc(F)c3c(c2)OC(c2ccc(C(C)C)s2)n2c-3cc3cc(-c4cnc([C@@H]5CCCN5C(=O)[C@@H](NC(=O)OC)C(C)C)[nH]4)ccc32)[nH]1)C(C)C (some centres not stated) | 0.003 | 0.001 | 0.01 | 0.13 | 0.002 | 0.52
COC(=O)N[C@H](C(=O)N1CCC[C@H]1c1ncc(-c2cc(F)c3c(c2)OC(c2cc4c(s2)CCC4)n2c-3cc3cc(-c4cnc([C@@H]5CCCN5C(=O)[C@@H](NC(=O)OC)C(C)C)[nH]4)ccc32)[nH]1)C(C)C (some centres not stated) | 0.005 | 0.007 | 0.003 | 0.26 | 0.003 | 0.24
COC(=O)N[C@H](C(=O)N1CCC[C@H]1c1ncc(-c2cc(F)c3c(c2)OC(c2cnc(CC(F)(F)F)s2)n2c-3cc3cc(-c4cnc([C@@H]5CCCN5C(=O)[C@@H](NC(=O)OC)C(C)C)[nH]4)ccc32)[nH]1)C(C)C (some centres not stated) | 0.013 | 0.015 | 0.05 | 0.18 | 0.005 | 0.22
COC(=O)N[C@H](C(=O)N1CCC[C@H]1c1ncc(-c2cc(F)c3c(c2)OC(c2cncs2)n2c-3cc3cc(-c4cnc([C@@H]5CCCN5C(=O)[C@@H](NC(=O)OC)C(C)C)[nH]4)ccc32)[nH]1)C(C)C (some centres not stated) |  | 0.079 |  | 1 | 0.006 | 2.47
COC(=O)N[C@H](C(=O)N1CCC[C@H]1c1ncc(-c2cc(F)c3c(c2)OC(c2ncc(C4CC4)s2)n2c-3cc3cc(-c4cnc([C@@H]5CCCN5C(=O)[C@@H](NC(=O)OC)C(C)C)[nH]4)ccc32)[nH]1)C(C)C (some centres not stated) |  |  | 0.017 | 1 | 0.005 | 1.63
COC(=O)N[C@H](C(=O)N1CCC[C@H]1c1ncc(-c2cc(F)c3c(c2)OC(c2sc(C4CC4)cc2F)n2c-3cc3cc(-c4cnc([C@@H]5CCCN5C(=O)[C@@H](NC(=O)OC)C(C)C)[nH]4)ccc32)[nH]1)C(C)C (some centres not stated) | 0.003 | 0.008 |  | 0.74 | 0.002 | 0.68
COC(=O)N[C@H](C(=O)N1CCC[C@H]1c1ncc(-c2cc(F)c3c(c2)OC(c2cnco2)n2c-3cc3cc(-c4cnc([C@@H]5CCCN5C(=O)[C@@H](NC(=O)OC)C(C)C)[nH]4)ccc32)[nH]1)C(C)C (some centres not stated) |  | 0.25 |  | 8.5 | 0.06 | 14.1
COC(=O)N[C@H](C(=O)N1CCC[C@H]1c1ncc(-c2cc(F)c3c(c2)OC(c2nc(C4CC4)cs2)n2c-3cc3cc(-c4cnc([C@@H]5CCCN5C(=O)[C@@H](NC(=O)OC)C(C)C)[nH]4)ccc32)[nH]1)C(C)C (some centres not stated) |  | 0.073 |  | 2.6 | 0.002 | 4.6
COC(=O)N[C@H](C(=O)N1CCC[C@H]1c1ncc(-c2cc(F)c3c(c2)OC(c2cc(C4CC4)cs2)n2c-3cc3cc(-c4cnc([C@@H]5CCCN5C(=O)[C@@H](NC(=O)OC)C(C)C)[nH]4)ccc32)[nH]1)C(C)C (some centres not stated) |  | 0.008 | 0.028 | 1.74 | < 0.002 | 1.6
